Test [1] relates to a variety of test species. Kind of test: Pre-emergence herbicidal activity (Example 8a, Table 2). It counts as in vivo. Also on record: key: 0 = no damage to plant, 5 = total damage to plant. The following applies: application pre-emergence, rate 1000 g/ha, evaluated after 13 days. An outline of the steps: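 Seeds sown in standard soil in pots, sprayed one day later (pre-emergence) with aqueous solution from acetone/water (50:50) formulation with 0.5% Tween 20. Glasshouse at 24/16 °C day/night, 14 h light, 65% humidity, watered twice daily. Damage scored after 13 days, 0 (none) to 5 (total).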

Test [2] has as its system a variety of test species. The test can be described thus: Post-emergence herbicidal activity (Example 8b, Table 3). It counts as in vivo. As to conditions: application post-emergence, rate 1000 g/ha, evaluated after 13 days, scale 0-5; for Herbicidal damage score, ABUTH: Abutilon theophrasti; for Herbicidal damage score, ALOMY: Alopecurus myosuroides; for Herbicidal damage score, AMARE: Amaranthus retroflexus; for Herbicidal damage score, ECHCG: Echinochloa crus-galli; for Herbicidal damage score, SETFA: Setaria faberi; for Herbicidal damage score, ZEAMX: Zea mays. An outline of the steps: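 Damage rating 0 (none) to 5 (total), assessed 13 days after spraying. Plants received the compound in acetone/water 50:50 with 0.5% Tween 20 at 8 days post-sowing, then were kept at 24/16 °C, 14 h photoperiod, 65% RH.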

`CSc1cc(N2C(=O)C(Cl)=C(C)C2O)nn1C` (stereo not drawn) [Compound B36]: in test [1], the “Pre-emergence herbicidal activity, damage score ABUTH” value came out at 5; the “Pre-emergence herbicidal activity, damage score ALOMY” value is 3; the “Pre-emergence herbicidal activity, damage score AMARE” value is on record as 5; the “Pre-emergence herbicidal activity, damage score ECHCG” value turned out to be 5. In test [1], the “Pre-emergence herbicidal activity, damage score SETFA” value turned out to be 5 and the “Pre-emergence herbicidal activity, damage score ZEAMX” value is recorded as 2. In test [2], the “Herbicidal damage score, ABUTH” value is recorded as 5; the “Herbicidal damage score, ALOMY” value was found to be 4; the “Herbicidal damage score, AMARE” value was found to be 5; the “Herbicidal damage score, ECHCG” value worked out at 5. Moreover, in test [2], the “Herbicidal damage score, SETFA” value amounted to 5 and the “Herbicidal damage score, ZEAMX” value worked out at 5.

On to `CC1=C(Cl)C(=O)N(c2cc(C(C)(C)C)n(C)n2)C1OC(=O)Oc1ccccc1` (stereo not drawn) [Compound F3], for which, in test [1], the “Pre-emergence herbicidal activity, damage score ABUTH” value is on record as 5; the “Pre-emergence herbicidal activity, damage score ALOMY” value worked out at 3; the “Pre-emergence herbicidal activity, damage score AMARE” value worked out at 5; the “Pre-emergence herbicidal activity, damage score ECHCG” value was 5. Moreover, in test [1], the “Pre-emergence herbicidal activity, damage score SETFA” value is listed as 4 and the “Pre-emergence herbicidal activity, damage score ZEAMX” value came to 3. Further, in test [2], the “Herbicidal damage score, ABUTH” value amounted to 5; the “Herbicidal damage score, ALOMY” value came to 5; the “Herbicidal damage score, AMARE” value was 5; the “Herbicidal damage score, ECHCG” value was 5. Besides, in test [2], the “Herbicidal damage score, SETFA” value is reported as 5 and the “Herbicidal damage score, ZEAMX” value stood at 5.

As to `CC1=C(Cl)C(=O)N(c2cc(C(C)(F)C(C)(C)C)n(C)n2)C1O` (mixture of isomers) [Compound B40], in test [1], the “Pre-emergence herbicidal activity, damage score ABUTH” value is 5; the “Pre-emergence herbicidal activity, damage score ALOMY” value came to 1; the “Pre-emergence herbicidal activity, damage score AMARE” value is given as 3; the “Pre-emergence herbicidal activity, damage score ECHCG” value came out at 2. Also, in test [1], the “Pre-emergence herbicidal activity, damage score SETFA” value is listed as 3 and the “Pre-emergence herbicidal activity, damage score ZEAMX” value is 0. In test [2], the “Herbicidal damage score, ABUTH” value turned out to be 5; the “Herbicidal damage score, ALOMY” value was found to be 4; the “Herbicidal damage score, AMARE” value was found to be 5; the “Herbicidal damage score, ECHCG” value is 5. Further, in test [2], the “Herbicidal damage score, SETFA” value is 5 and the “Herbicidal damage score, ZEAMX” value was 1.

Take `CC1=C(Cl)C(=O)N(c2cc(C(C)(C)C)n(C)n2)C1OC(=O)Oc1ccccc1` (stereo not drawn) [Compound F2]: in test [1], the “Pre-emergence herbicidal activity, damage score ABUTH” value amounted to 5; the “Pre-emergence herbicidal activity, damage score ALOMY” value stood at 3; the “Pre-emergence herbicidal activity, damage score AMARE” value is on record as 5; the “Pre-emergence herbicidal activity, damage score ECHCG” value is listed as 5. In test [1], the “Pre-emergence herbicidal activity, damage score SETFA” value stood at 4 and the “Pre-emergence herbicidal activity, damage score ZEAMX” value was found to be 3. Also, in test [2], the “Herbicidal damage score, ABUTH” value is on record as 5; the “Herbicidal damage score, ALOMY” value turned out to be 5; the “Herbicidal damage score, AMARE” value was determined as 5; the “Herbicidal damage score, ECHCG” value is 5. Moreover, in test [2], the “Herbicidal damage score, SETFA” value came out at 5 and the “Herbicidal damage score, ZEAMX” value was 5.

`CC1=C(Cl)C(=O)N(c2cc(CCC(C)C)n(C)n2)C1O` (stereo not drawn) [Compound B27]: in test [1], the “Pre-emergence herbicidal activity, damage score ABUTH” value was found to be 3; the “Pre-emergence herbicidal activity, damage score ALOMY” value amounted to 1; the “Pre-emergence herbicidal activity, damage score AMARE” value was determined as 5; the “Pre-emergence herbicidal activity, damage score ECHCG” value was 4. Further, in test [1], the “Pre-emergence herbicidal activity, damage score SETFA” value is listed as 3 and the “Pre-emergence herbicidal activity, damage score ZEAMX” value is recorded as 2. Further, in test [2], the “Herbicidal damage score, ABUTH” value is reported as 3; the “Herbicidal damage score, ALOMY” value came out at 1; the “Herbicidal damage score, AMARE” value amounted to 2; the “Herbicidal damage score, ECHCG” value came to 5. Moreover, in test [2], the “Herbicidal damage score, SETFA” value was determined as 5 and the “Herbicidal damage score, ZEAMX” value is on record as 0.

In the case of `CC1=C(Cl)C(=O)N(c2cc(Cc3ccccc3)n(C)n2)C1O` (stereo not drawn) [Compound B24], in test [1], the “Pre-emergence herbicidal activity, damage score ABUTH” value was 3; the “Pre-emergence herbicidal activity, damage score ALOMY” value is 3; the “Pre-emergence herbicidal activity, damage score AMARE” value was 3; the “Pre-emergence herbicidal activity, damage score ECHCG” value is 3. Further, in test [1], the “Pre-emergence herbicidal activity, damage score SETFA” value is on record as 3 and the “Pre-emergence herbicidal activity, damage score ZEAMX” value came to 0. Moreover, in test [2], the “Herbicidal damage score, ABUTH” value is 5; the “Herbicidal damage score, ALOMY” value was 4; the “Herbicidal damage score, AMARE” value was determined as 5; the “Herbicidal damage score, ECHCG” value is given as 5. Besides, in test [2], the “Herbicidal damage score, SETFA” value came out at 5 and the “Herbicidal damage score, ZEAMX” value was 1.

On to `COC1=C(C)C(O)N(c2nn(C)c(C(C)(C)C)c2C#N)C1=O` (stereo not drawn) [Compound H3], for which, in test [1], the “Pre-emergence herbicidal activity, damage score ABUTH” value came out at 4; the “Pre-emergence herbicidal activity, damage score ALOMY” value turned out to be 4; the “Pre-emergence herbicidal activity, damage score AMARE” value is 4; the “Pre-emergence herbicidal activity, damage score ECHCG” value turned out to be 5. In addition, in test [1], the “Pre-emergence herbicidal activity, damage score SETFA” value was determined as 4 and the “Pre-emergence herbicidal activity, damage score ZEAMX” value came to 1. Also, in test [2], the “Herbicidal damage score, ABUTH” value turned out to be 5; the “Herbicidal damage score, ALOMY” value stood at 5; the “Herbicidal damage score, AMARE” value is given as 4; the “Herbicidal damage score, ECHCG” value is reported as 5. In test [2], the “Herbicidal damage score, SETFA” value came to 5 and the “Herbicidal damage score, ZEAMX” value came out at 3.

Consider `COC1=C(C)C(O)N(c2cc(C(C)(C)C)n(C)n2)C1=O` (stereo not drawn) [Compound H1, 1-(5-tert-butyl-1-methyl-pyrazol-3-yl)-2-hydroxy-4-methoxy-3-methyl-2H-pyrrol-5-one], for which, in test [1], the “Pre-emergence herbicidal activity, damage score ABUTH” value is recorded as 5; the “Pre-emergence herbicidal activity, damage score ALOMY” value is 4; the “Pre-emergence herbicidal activity, damage score AMARE” value amounted to 5; the “Pre-emergence herbicidal activity, damage score ECHCG” value stood at 5. In test [1], the “Pre-emergence herbicidal activity, damage score SETFA” value is on record as 5 and the “Pre-emergence herbicidal activity, damage score ZEAMX” value is reported as 4. In test [2], the “Herbicidal damage score, ABUTH” value came out at 5; the “Herbicidal damage score, ALOMY” value is listed as 5; the “Herbicidal damage score, AMARE” value was found to be 5; the “Herbicidal damage score, ECHCG” value turned out to be 5. Moreover, in test [2], the “Herbicidal damage score, SETFA” value turned out to be 5 and the “Herbicidal damage score, ZEAMX” value is listed as 4.

Turning to `COC1=C(OC)C(O)N(c2cc(C(F)(F)F)n(C)n2)C1=O` (stereo not drawn) [Compound T2], in test [1], the “Pre-emergence herbicidal activity, damage score ABUTH” value came to 5; the “Pre-emergence herbicidal activity, damage score ALOMY” value is on record as 4; the “Pre-emergence herbicidal activity, damage score AMARE” value was 4; the “Pre-emergence herbicidal activity, damage score ECHCG” value turned out to be 5. In test [1], the “Pre-emergence herbicidal activity, damage score SETFA” value stood at 5 and the “Pre-emergence herbicidal activity, damage score ZEAMX” value was determined as 4. In test [2], the “Herbicidal damage score, ABUTH” value is listed as 5; the “Herbicidal damage score, ALOMY” value is 5; the “Herbicidal damage score, AMARE” value came to 5; the “Herbicidal damage score, ECHCG” value turned out to be 5. For the same compound, in test [2], the “Herbicidal damage score, SETFA” value is 5 and the “Herbicidal damage score, ZEAMX” value is reported as 5.

Regarding `CCCC1=C(Br)C(=O)N(c2nn(C)c(C(C)(C)C)c2C#N)C1O` (stereo not drawn) [Compound L4], in test [1], the “Pre-emergence herbicidal activity, damage score ABUTH” value is reported as 4; the “Pre-emergence herbicidal activity, damage score ALOMY” value was determined as 4; the “Pre-emergence herbicidal activity, damage score AMARE” value is recorded as 3; the “Pre-emergence herbicidal activity, damage score ECHCG” value is given as 5. Besides, in test [1], the “Pre-emergence herbicidal activity, damage score SETFA” value came out at 4 and the “Pre-emergence herbicidal activity, damage score ZEAMX” value amounted to 2. Besides, in test [2], the “Herbicidal damage score, ABUTH” value came to 5; the “Herbicidal damage score, ALOMY” value stood at 5; the “Herbicidal damage score, AMARE” value is listed as 5; the “Herbicidal damage score, ECHCG” value came to 5. Moreover, in test [2], the “Herbicidal damage score, SETFA” value came out at 5 and the “Herbicidal damage score, ZEAMX” value is on record as 2.

As for `CC1=C(Br)C(=O)N(c2cc3n(n2)CC[S+]([O-])C3(C)C)C1O` (mixture of isomers) [Compound M5], in test [1], the “Pre-emergence herbicidal activity, damage score ABUTH” value came out at 2; the “Pre-emergence herbicidal activity, damage score ALOMY” value turned out to be 1; the “Pre-emergence herbicidal activity, damage score AMARE” value was determined as 2; the “Pre-emergence herbicidal activity, damage score ECHCG” value stood at 2. In test [1], the “Pre-emergence herbicidal activity, damage score SETFA” value amounted to 1 and the “Pre-emergence herbicidal activity, damage score ZEAMX” value was 1. For the same compound, in test [2], the “Herbicidal damage score, ABUTH” value is listed as 4; the “Herbicidal damage score, ALOMY” value is given as 2; the “Herbicidal damage score, AMARE” value was 2; the “Herbicidal damage score, ECHCG” value turned out to be 2. Also, in test [2], the “Herbicidal damage score, SETFA” value was determined as 1 and the “Herbicidal damage score, ZEAMX” value was determined as 0.

With `CC1=C(Br)C(=O)N(c2nn(C)c(C(C)(C)C)c2C#N)C1O` (stereo not drawn) [Compound L1], in test [1], the “Pre-emergence herbicidal activity, damage score ABUTH” value is given as 5; the “Pre-emergence herbicidal activity, damage score ALOMY” value was 4; the “Pre-emergence herbicidal activity, damage score AMARE” value is reported as 5; the “Pre-emergence herbicidal activity, damage score ECHCG” value was 5. Also, in test [1], the “Pre-emergence herbicidal activity, damage score SETFA” value worked out at 5 and the “Pre-emergence herbicidal activity, damage score ZEAMX” value was 3. In test [2], the “Herbicidal damage score, ABUTH” value is 5; the “Herbicidal damage score, ALOMY” value is recorded as 5; the “Herbicidal damage score, AMARE” value was found to be 5; the “Herbicidal damage score, ECHCG” value is 5. Moreover, in test [2], the “Herbicidal damage score, SETFA” value came to 5 and the “Herbicidal damage score, ZEAMX” value was 3.

The values are drawn from US9605004B2, “Chemical compounds” (SYNGENTA LIMITED, priority 2013, dated 2017).
